Read-outs that look alike come from different tables or passages of the source.
How the values were obtained:
[1] = molecular target: T1, His tagged PTPN2 (TC45) protein (Homo sapiens, UniProt P17706); experiment: Mobility shift assay (MSA) for potency of PTPN2 inhibitors; assay type: biochemical
T1 construct: made in house
T1 sequence (P17706 with tags, fused parts or gaps isoform P17706-2): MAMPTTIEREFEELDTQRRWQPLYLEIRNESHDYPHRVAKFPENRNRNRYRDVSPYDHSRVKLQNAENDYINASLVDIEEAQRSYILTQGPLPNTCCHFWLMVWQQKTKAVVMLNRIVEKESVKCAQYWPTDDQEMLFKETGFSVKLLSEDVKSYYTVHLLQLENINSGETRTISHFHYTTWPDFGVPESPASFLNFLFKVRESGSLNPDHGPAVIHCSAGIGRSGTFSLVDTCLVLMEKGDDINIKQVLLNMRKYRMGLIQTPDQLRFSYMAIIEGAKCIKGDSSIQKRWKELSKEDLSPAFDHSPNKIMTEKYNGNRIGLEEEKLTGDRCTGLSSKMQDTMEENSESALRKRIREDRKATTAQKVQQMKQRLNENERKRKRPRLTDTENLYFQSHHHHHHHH
Summary of the method: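 His-tagged PTPN2 TC45 (0.5 nM) was preincubated with compound (12-point, 1:3) for 10 min at room temperature in 50 mM HEPES pH 7.5, 1 mM EGTA, 10 mM EDTA, 0.01% Tween 20, 2 mM DTT. OG488-labelled phospho-insulin-receptor peptide ([…]) was then added for 10 min. After quenching, dephosphorylation was measured by microfluidic mobility shift and IC50 derived from % inhibition.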

[2] = tested on: MC-38 murine colon adenocarcinoma; experiment: In vivo efficacy in MC38 tumor model; conditions: for mice that achieved complete cures / tolerability / Tumor Growth Inhibition (Max) compared to vehicle [%]: 300 mg/kg/dose oral BID for 21 days; for Tumor Growth Inhibition (Max) compared to vehicle [%]: C57Bl/6 mice, TGIMax over the entirety of the study; for tumor response observed: within 7-10 days of treatment
Method: All experiments were conducted in compliance with AbbVie's Institutional Animal Care and Use Committee and the National Institutes of Health Guide for Care and Use of Laboratory Animals guidelines in a facility accredited by the Association for the Assessment and Accreditation of Laboratory Animal Care. C57Bl/6 female mice were obtained from Charles River (Wilmington, Mass.). The mice were group-housed 10 per cage. Food and water were available ad libitum. Animals were acclimated to the animal facilities for a period of at least one week prior to commencement of experiments. Animals were tested in the light phase of a 12-hour light:12-hour dark schedule (lights on 0600 hours).
Cells were grown to passage 3 in vitro. A total of 1×10^5 viable MC-38 cells were inoculated subcutaneously into the right flank of female C57Bl/6 mice (7-12 weeks old) on Day 0. The injection volume was 0.1 mL and was composed of a 1:1 mixture of S-MEM and Matrigel® (Corning, N.Y., USA). […] The mean tumor volume (TV) at size match was approximately 116±8 mm^3. Following size match, treatments were initiated on the same day. […] Compound 124 was formulated in 5% DMSO, 5% Tween 80 (Polysorbate 80), 20% PEG-400 and 70% D5W (5% dextrose in water) and was dosed at 10 mL/kg. […] Tumor volume was calculated three times weekly. Measurements of the length (L) and width (W) of the tumor were taken via electronic caliper and the volume was calculated according to the following equation: V=L×W^2/2 using Study Director Version 3.1.399.22 (Studylog Systems, Inc, CA, USA). Mice were euthanized when tumor volume was […] or skin ulcerations occurred. […] Reported TGIMax is the largest TGI value for any timepoint that tumors volumes were collected for that treatment group.

[3] = tested on: Pan T cells isolated from C57BL6 splenocytes; experiment: T cell function assay (IFNγ and TNFα in supernatants, MSD V-plex); assay type: cell-based, mouse; conditions: 30 μM compound, 3 days, supernatant
Method: Pan T cells were isolated from C57BL6 splenocytes using a MACS Pan T cell isolation kit II (Miltenyi Biotec, Auburn, Calif.) according to the manufacturer's instructions. Isolated T cells (200,000 cells/well in a 96 well flat-bottom plate) were cultured in RPMI 1640 supplemented with 10% FBS, […] 2-mercatoethanol, 100 U/mL penicillin, and 100 μg/mL streptomycin, and incubated with the indicated concentration of compound or DMSO in duplicates. After 1 hour, mouse T cell activator CD3/CD28 Dynabeads (ThermoFisher Scientific, Waltham, Mass.) were added at a 1:5 beads to cells ratio to stimulate the T cells for 2 or 3 days as outlined below. T cells with or without compound were incubated in the absence of T cell activator beads (media only) as control.
After 3 days of stimulation, supernatants were collected and IFNγ and TNFα in supernatants were assessed using an MSD V-plex assay (Meso Scale Discovery, Rockville, Md.).

[4] = anti-CD3/anti-CD28 Dynabeads (1:5 beads:cells)

| SMILES | IC50 ([1]; read-out: PTPN2 MSA IC50) [nM] | mice that achieved complete cures [2] [%] | tolerability [2] | Tumor Growth Inhibition (Max) compared to vehicle [%] [2] [%] | tumor response observed [2] | IFNγ [3, 4] [ng/mL] | TNFα [3, 4] [ng/mL] | IC50 ([1]; Table 4, read-out: PTPN2 MSA IC50) [nM] | IC50 ([1]; read-out: PTPN2 IC50) [nM] | IFNγ ([3]; no TCR stimulation) [ng/mL] | TNFα ([3]; no TCR stimulation) [ng/mL] |
| --- | --- | --- | --- | --- | --- | --- | --- | --- | --- | --- | --- |
| CC(C)(O)CCOc1ccc2cc(O)c(N3CC(=O)NS3(=O)=O)c(F)c2c1 [Compound 182, 5-[1-fluoro-3-hydroxy-7-(3-hydroxy-3-methylbutoxy)naphthalen-2-yl]-1λ^6,2,5-thiadiazolidine-1,1,3-trione] | < 1 | 50 | well tolerated, without obvious adverse health events | 94 | apparent tumor stasis and shrinkage | 189 | 135 |  |  |  |  |
| COc1ccc2cc(O)c(N3CC(=O)NS3(=O)=O)c(F)c2c1 [Compound 124, 5-(1-fluoro-3-hydroxy-7-methoxynaphthalen-2-yl)-1λ^6,2,5-thiadiazolidine-1,1,3-trione] | 1 to 10 | 50 | well tolerated, without obvious adverse health events | 75 | apparent tumor stasis and shrinkage | 435 | 195 | 1 to 10 | 4.4 | 1.2 | 1.4 |

From patent US20210009542A1 (Calico Life Sciences LLC, priority 2018, published 2021)
